Where “and” joins values, the source holds several entries; their conditions need not be identical. Equal entries are not always repeated.
Test system: CD4+ T cell (C57BL/6) co-cultured with dendritic cell (BALB/C)
Test: Inhibition test of T-cell proliferation, 1 way mixed lymphocyte reaction (MLR), H3-thymidine incorporation
Type: cell-based, mouse
Conditions: for % of inhibition = [cpm (untreated) - cpm(treated)] / cpm (untreated): T cell proliferation, from photo-nonexposed CPM
Text: It is typically known that the increase of CD4^+ T cells is observed in atopic dermatitis lesion, and cytokines secreted from CD4^+ T cells make the condition of atopic dermatitis worse (DirkJan Hijnen et al., J Invest Dermatol 125:1149-1155, 2005). Therefore, we tried to determine the therapeutic effectiveness of cobalamin derivatives for treatment of atopic dermatitis by examining the changes of T-cell proliferation before and after photolysis of cobalamin derivatives.
When the T cell separated from one mouse strain and the dendritic cell (DC, antigen presenting cell) separated from another mouse strain are mixed together, the immune response by the T cell occurs. This immune response is a tissue incompatibility reaction due to the difference of the genes of MHC molecules of the two strains.
In this experiment, the target cell (DC) derived from BALB/C strain and the CD4^+ T cell (the responder) derived from C57BL/6 (B6) strain are mixed and co-cultured to induce a 1 way MLR. In this process, several types of cobalamin derivatives (cyanocobalamin, hydroxocobalamin, methylcobalamin, adenosylcobalamin) are treated, and then the intensities of the immune response are measured by comparing the T cell proliferation for each of the cobalamin derivative-treated group.
1) Bone marrow derived dendritic cells were isolated from 8 weeks BALB/c mouse as follows.
2) The femur and tibiae were separated from a mouse, and then soaked in PBS. The muscle tissues were removed from them. Then, the bones were soaked in 70% EtOH for 2 minutes for sterilization, and then EtOH was washed off with PBS.
3) A needle of a 10 ml syringe filled with PBS was inserted into ends of the bones and then PBS was injected into the bones to isolate the bone marrow.
4) The obtained bone marrow was made into a single cell suspension by pipetting.
5) 1˜1.5×10^7 of leukocytes were isolated per one femur or one tibia.
6) Culture medium was prepared (RPMI-1640+Penicillin/Streptomycin, L-Glutamin, 2-MercaptoEtOH, 10% Fetal Bovine Serum, Recombinant mouse GM-CSF). 2×10^6 of BM leukocytes were plated onto 100 mm Petri dish with 10 ml of the culture medium. At this time, […] (in case of 20 ng/ml, 5×10^6 U/mg) of rmGM-CSF was added. (Day 0)
7) Day 3, 10 ml of culture medium (including 200 U/ml GM-CSF) was added.
8) Day 6, culture medium replacement: 10 ml of culture medium from the culture plate was taken, and then centrifuged. The obtained cells were released in a fresh medium containing GM-CSF 200 U/ml, and then they were put back into the original culture plate. Through this process, half of the entire culture medium could be changed to a new medium.
9) Day 8, culture medium replacement: Half of the culture medium was replaced in the same way as day 6.
10) Day 9, after collecting BM-DCs by pipetting carefully, and centrifuging at 300 g/RT/5 min, they were poured into 10 ml of fresh culture medium. The BM-DCs were plated on 100 mm tissue culture plate. 100 U/ml of rmGM-CSF and 1 μg/ml of LPS were added to the culture medium. The BM-DCs were fully maturated by culturing for an extra day.
1) The spleen was separated out from C57BL/6 mouse, and was ground by using the nylon mesh in PBS and then centrifuged at 300×g for 4 min.
2) The obtained cell pellet was treated with 5 ml of ACK RBC lysing solution for 5 minutes in RT, and then washed with PBS.
3) After resuspending the cells in 500 μl of MACs buffer (PBS+EDTA/BSA), the cells were stained with 50 μl of anti-CD4 microbead. Then, the CD4^+ T cell (1×10^7 cells) were separated from the cells according to the manual of MACS kit (Miltenyi Company).
1) The experiment for determining MLR response was designed to comprise control group, photo-exposed group, and photo-nonexposed group as follows. Each group was tested in triplicate according to concentration and substance on 3 wells. […]

[1] = 10 μM (lowest concentration), 10 µM
[2] = 500 μM (highest concentration), 500 µM

Compound	% of inhibition = [cpm (untreated) - cpm(treated)] / cpm (untreated) [1]	% of inhibition = [cpm (untreated) - cpm(treated)] / cpm (untreated) (30 μM)	% of inhibition = [cpm (untreated) - cpm(treated)] / cpm (untreated) (100 μM)	% of inhibition = [cpm (untreated) - cpm(treated)] / cpm (untreated) [2]	radioactivity (CPM), single wells of triplicate (photo-nonexposed group, 10 μm)	radioactivity (CPM), single wells of triplicate (photo-nonexposed group, 30 μm)	radioactivity (CPM), single wells of triplicate (photo-nonexposed group, 500 μm)	radioactivity (CPM), single wells of triplicate (photo-nonexposed group, 100 μm)	further results
C/C1=C2/[N-][C@H]([C@H](CC(N)=O)[C@@]2(C)CCC(=O)NC[C@@H](C)OP(=O)([O-])O[C@H]2[C@@H](O)[C@@H](n3cnc4cc(C)c(C)cc43)O[C@@H]2CO)[C@]2(C)N=C(/C(C)=C3N=C(/C=C4N=C1[C@@H](CCC(N)=O)C\4(C)C)[C@@H](CCC(N)=O)[C@]\3(C)CC(N)=O)[C@@H](CCC(N)=O)[C@]2(C)CC(N)=O.[CH2-][C@H]1O[C@@H](n2cnc3c(N)ncnc32)[C@H](O)[C@@H]1O.[Co] [A-co, adenosylcobalamin]	57.9% and 58.03% and 60.21%	66.99% and 77.79% and 83.85%	89.85% and 91.31% and 95.18%	96.51% and 97.48% and 98.07%	19094 CPM and 19033 CPM and 18047 CPM	14064 CPM and 10071 CPM and 7326 CPM	1585 CPM and 1141 CPM and 875 CPM	–	radioactivity (CPM), single wells of triplicate (photo-exposed group (under the light for 1 hr before treatment), 3 μM, listed as Photo-A-co): 26305 CPM and 14772 CPM and 24306 CPM; radioactivity (CPM), single wells of triplicate (photo-exposed group (under the light for 1 hr before treatment), 10 μM, listed as Photo-A-co): 2225 CPM and 3123 CPM and 1922 CPM; radioactivity (CPM), single wells of triplicate (photo-exposed group (under the light for 1 hr before treatment), 30 μM, listed as Photo-A-co): 997 CPM and 1091 CPM and 1391 CPM; radioactivity (CPM), single wells of triplicate (photo-exposed group (under the light for 1 hr before treatment), 100 μM, listed as Photo-A-co): 696 CPM and 1259 CPM and 1333 CPM
C/C1=C2/[N-][C@H]([C@H](CC(N)=O)[C@@]2(C)CCC(=O)NC[C@@H](C)OP(=O)([O-])O[C@H]2[C@@H](O)[C@@H](n3cnc4cc(C)c(C)cc43)O[C@@H]2CO)[C@]2(C)N=C(/C(C)=C3N=C(/C=C4N=C1[C@@H](CCC(N)=O)C\4(C)C)[C@@H](CCC(N)=O)[C@]\3(C)CC(N)=O)[C@@H](CCC(N)=O)[C@]2(C)CC(N)=O.[Co+3].[OH-] [H-co, hydroxocobalamin]	–	25.76% and 23.13% and 24.28%	37.0706% and 42.13% and 34.41%	67.35% and 75.19% and 70.9%	41967 CPM and 33493 CPM and 38243 CPM	33669 CPM and 34662 CPM and 34340 CPM	14806 CPM and 11254 CPM and 13198 CPM	28541 CPM and 26247 CPM and 29747 CPM	radioactivity (CPM), single wells of triplicate (photo-exposed group (under the light for 1 hr before treatment), 3 μM, listed as Photo-H-co): 52932 CPM and 46313 CPM and 40358 CPM; radioactivity (CPM), single wells of triplicate (photo-exposed group (under the light for 1 hr before treatment), 10 μM, listed as Photo-H-co): 42615 CPM and 39452 CPM and 33765 CPM; radioactivity (CPM), single wells of triplicate (photo-exposed group (under the light for 1 hr before treatment), 30 μM, listed as Photo-H-co): 34824 CPM and 37105 CPM and 32225 CPM; radioactivity (CPM), single wells of triplicate (photo-exposed group (under the light for 1 hr before treatment), 100 μM, listed as Photo-H-co): 37189 CPM and 23765 CPM and 30994 CPM
C/C1=C2/[N-][C@H]([C@H](CC(N)=O)[C@@]2(C)CCC(=O)NC[C@H](C)OP(=O)([O-])O[C@H]2[C@@H](O)[C@@H](n3cnc4cc(C)c(C)cc43)O[C@@H]2CO)[C@]2(C)N=C(/C(C)=C3N=C(/C=C4N=C1[C@@H](CCC(N)=O)C\4(C)C)[C@@H](CCC(N)=O)[C@]\3(C)CC(N)=O)[C@@H](CCC(N)=O)[C@]2(C)CC(N)=O.[CH3-].[Co+3] [M-co, methylcobalamin]	–	–	–	49.98% and 36.23% and 45.1184%	37594 CPM and 43624 CPM and 44951 CPM	36641 CPM and 28896 CPM and 40298 CPM	22687 CPM and 28924 CPM and 24891 CPM	37066 CPM and 30678 CPM and 39514 CPM	radioactivity (CPM), single wells of triplicate (photo-exposed group (under the light for 1 hr before treatment), 3 μM, listed as Photo-M-co): 33467 CPM and 32885 CPM and 50368 CPM; radioactivity (CPM), single wells of triplicate (photo-exposed group (under the light for 1 hr before treatment), 10 μM, listed as Photo-M-co): 42973 CPM and 43693 CPM and 41162 CPM; radioactivity (CPM), single wells of triplicate (photo-exposed group (under the light for 1 hr before treatment), 30 μM, listed as Photo-M-co): 18844 CPM and 28639 CPM and 29522 CPM
cyanocobalamin [C-co]	4.28% and 11.95% and 9.071%	–	–	–	43413 CPM and 39935 CPM and 41240 CPM	42882 CPM and 30722 CPM and 40187 CPM	36303 CPM and 40107 CPM	41663 CPM and 48408 CPM and 39928 CPM	radioactivity (CPM), single wells of triplicate (photo-exposed group (under the light for 1 hr before treatment), 3 μM, listed as Photo-C-co): 41161 CPM and 57338 CPM and 56253 CPM; radioactivity (CPM), single wells of triplicate (photo-exposed group (under the light for 1 hr before treatment), 10 μM, listed as Photo-C-co): 39141 CPM and 36381 CPM and 39492 CPM; radioactivity (CPM), single wells of triplicate (photo-exposed group (under the light for 1 hr before treatment), 30 μM, listed as Photo-C-co): 38702 CPM and 34451 CPM and 34078 CPM; radioactivity (CPM), single wells of triplicate (photo-exposed group (under the light for 1 hr before treatment), 100 μM, listed as Photo-C-co): 50511 CPM and 27692 CPM and 30567 CPM

— US20130084329A1, “COMPOSITIONS FOR EXTERNAL APPLICATION, CONTAINING ADENOSYLCOBALAMIN FOR IMPROVEMENT OF SKIN DISEASES” (HANALL BIOPHARMA CO., LTD., priority 2005, published 2013)
